Values belong to the molecule of their own block, whether it stands above or below them.
How the values were obtained:
Assay type in all cases: cell-based
Trpv4_v10 = target: T1, Trpv4_v10 (Sparus aurata, UniProt A0A671Y517); assay: two-electrode voltage clamp in Xenopus oocytes, constitutive current at -85 mV
T1 construct: gene trpv4; synthesized full-length splice-variant cDNA in pT7Ts; cRNA expressed alone in Xenopus laevis oocytes; divergent N-terminus
T1 sequence (A0A671Y517 1-877): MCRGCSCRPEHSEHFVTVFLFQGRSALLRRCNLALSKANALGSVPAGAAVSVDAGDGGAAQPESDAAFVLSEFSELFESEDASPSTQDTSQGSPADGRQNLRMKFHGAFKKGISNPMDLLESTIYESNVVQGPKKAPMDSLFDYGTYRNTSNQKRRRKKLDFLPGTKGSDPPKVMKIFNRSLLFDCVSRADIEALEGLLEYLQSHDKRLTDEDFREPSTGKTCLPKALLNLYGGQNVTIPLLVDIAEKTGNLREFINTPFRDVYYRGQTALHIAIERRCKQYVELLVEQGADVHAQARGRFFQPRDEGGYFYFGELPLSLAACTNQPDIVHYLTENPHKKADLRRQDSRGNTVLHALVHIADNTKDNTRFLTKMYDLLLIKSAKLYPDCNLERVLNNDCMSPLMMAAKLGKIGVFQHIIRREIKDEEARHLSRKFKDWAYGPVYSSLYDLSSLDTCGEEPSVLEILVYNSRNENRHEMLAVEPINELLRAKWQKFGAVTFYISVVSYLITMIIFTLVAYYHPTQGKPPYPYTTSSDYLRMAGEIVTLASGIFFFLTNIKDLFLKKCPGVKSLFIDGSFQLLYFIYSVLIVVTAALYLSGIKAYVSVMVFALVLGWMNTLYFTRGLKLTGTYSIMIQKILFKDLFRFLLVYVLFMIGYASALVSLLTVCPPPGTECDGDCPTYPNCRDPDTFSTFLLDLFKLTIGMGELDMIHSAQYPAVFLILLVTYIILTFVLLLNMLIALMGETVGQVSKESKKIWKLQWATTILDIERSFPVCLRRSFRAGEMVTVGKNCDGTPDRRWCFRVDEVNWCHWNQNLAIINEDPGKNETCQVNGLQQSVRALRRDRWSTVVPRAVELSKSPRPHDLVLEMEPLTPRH

Trpv4_v1 = target: T2, Trpv4_v1 (Sparus aurata, UniProt A0A671Y4W2); assay: as above
T2 construct: gene trpv4; full-length cDNA from testis in pT7Ts; cRNA expressed alone in Xenopus laevis oocytes; calculated monomer 99 kDa
T2 sequence (A0A671Y4W2 1-876): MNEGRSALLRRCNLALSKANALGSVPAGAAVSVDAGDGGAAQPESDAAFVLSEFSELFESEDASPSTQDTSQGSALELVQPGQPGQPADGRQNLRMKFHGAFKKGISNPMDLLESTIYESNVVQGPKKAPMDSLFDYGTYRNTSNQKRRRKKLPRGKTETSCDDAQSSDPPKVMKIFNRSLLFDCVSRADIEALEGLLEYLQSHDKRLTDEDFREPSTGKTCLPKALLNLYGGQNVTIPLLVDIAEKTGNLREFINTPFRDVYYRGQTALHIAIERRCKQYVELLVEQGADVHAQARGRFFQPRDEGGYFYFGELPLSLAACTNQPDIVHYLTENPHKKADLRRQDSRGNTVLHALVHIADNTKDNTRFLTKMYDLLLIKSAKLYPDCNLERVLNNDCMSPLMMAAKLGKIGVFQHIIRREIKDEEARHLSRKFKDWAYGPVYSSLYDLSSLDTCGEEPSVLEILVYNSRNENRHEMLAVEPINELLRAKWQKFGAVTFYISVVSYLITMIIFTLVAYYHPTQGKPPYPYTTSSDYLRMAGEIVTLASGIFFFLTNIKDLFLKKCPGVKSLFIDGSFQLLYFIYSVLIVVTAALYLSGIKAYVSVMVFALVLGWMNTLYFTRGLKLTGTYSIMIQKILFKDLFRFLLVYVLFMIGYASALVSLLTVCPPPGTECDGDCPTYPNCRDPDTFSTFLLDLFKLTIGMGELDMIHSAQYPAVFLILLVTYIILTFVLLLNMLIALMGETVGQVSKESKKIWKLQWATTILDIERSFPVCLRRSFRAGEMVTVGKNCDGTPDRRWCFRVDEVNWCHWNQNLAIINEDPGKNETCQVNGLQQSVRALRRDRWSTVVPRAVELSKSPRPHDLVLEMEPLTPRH

Aqp4a-M43 = target: T3, Aqp4a-M43 (Sparus aurata, UniProt A0A678R2D9); assay: oocyte swelling assay (osmotic water permeability Lp); details: 5 min pretreatment, hyposmotic challenge -100 mOsm, pH 7.4
T3 construct: gene Aqp4; short isoform starting at Met-43, 31 kDa; cRNA expressed in Xenopus laevis oocytes

[1] = 5 min exposure, isosmotic 220 mOsm, pH 7.4, room temperature

T3 sequence (A0A678R2D9 entry or part of it): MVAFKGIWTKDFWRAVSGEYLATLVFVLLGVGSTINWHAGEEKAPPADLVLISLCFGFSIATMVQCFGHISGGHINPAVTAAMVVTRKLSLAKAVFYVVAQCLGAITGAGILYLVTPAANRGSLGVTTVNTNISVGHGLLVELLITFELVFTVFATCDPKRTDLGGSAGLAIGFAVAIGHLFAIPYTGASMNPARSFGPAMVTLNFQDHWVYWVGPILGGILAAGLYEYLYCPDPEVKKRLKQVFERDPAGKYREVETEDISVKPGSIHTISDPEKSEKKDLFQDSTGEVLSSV

SMILES: N.N.N.N.N.N.N.N.N.N.N.N.N.N.[Cl-].[Cl-].[Cl-].[Cl-].[Cl-].[Cl-].[O-2].[O-2].[Ru+3].[Ru+3].[Ru+4] [ruthenium red]
% inhibition at 10 μM (Trpv4_v10; [1]): ~ 5% | % inhibition at 10 μM (Trpv4_v1; [1]): ~ 28%

inhibition at 100 µM (Trpv4_v10): ~9% | inhibition at 100 µM (Trpv4_v1): ~40%
SMILES: CC(C)NCCN(C(C)C)S(=O)(=O)c1ccc(Cl)cc1Cl [RN-1734]

SMILES: Cc1c(C(=O)Nc2cccc(C(F)(F)F)c2)cc(-c2ccccc2)n1CCCN1CCOCC1 [HC-067047]
inhibition at 10 µM (Trpv4_v10): ~8% | inhibition at 10 µM (Trpv4_v1): ~8%

% reduction of Lp at 20 μM (Aqp4a-M43): ~ 82%
SMILES: O=C(Nc1nncs1)c1cccnc1 [TGN-020, 2-(Nicotinamide)-1,3,4-thiadiazole]

Source: paper PMC11335209, “Aqp4a and Trpv4 mediate regulatory cell volume increase for swimming maintenance of marine fish spermatozoa” (Cellular and Molecular Life Sciences: CMLS, 2024)
